The record followed here is patent publication US20240277795A1, “INHIBITORS OF CYSTEINE PROTEASES AND METHODS OF USE THEREOF” (Pardes Biosciences, Inc., priority 2021, published 2024).

SMILES strings stand for the structures. Read-outs that look alike come from different tables or passages of the source.

As usually defined, the IC50 is the concentration that gives 50% inhibition.

The target of one experiment is 229E Mpro (Human coronavirus 229E, UniProt P0C6X1). The experiment is described as follows: 229E Mpro enzymatic assay. It counts as biochemical, HCoV 229E. The protocol:
(§1) Compounds were assayed using standard methods to assess compound activity and IC50. As an exemplary for assessment of the SARS-COV2 Mpro, the C-His6-tagged Mpro (NC_045512) was cloned, expressed in E. coli and purified. The assay buffer contained 20 mM of Tris-HCl (pH 7.3), 100 mM of NaCl, 1 mM of EDTA, 5 mM of TCEP and 0.1% BSA. The final concentrations of the Mpro protein and substrate were 25 nM and 25 μM, respectively, in the Mpro enzymatic assay. The Km of the Mpro substrate for the protease was 13.5 μM.
(§2) The compounds were added to an assay plate. For 100% inhibition control (HPE, hundred percent effect), 1 μM GC376 was added. For no inhibition control (ZPE, zero percent effect), no compound was added.
(§3) IC50 values of compounds were calculated with the GraphPad Prism software using the nonlinear regression model of log(inhibitor) vs. response—Variable slope (four parameters). The inhibition activity was calculated using the formula below, IC50 values is calculated using the Inhibition % data.
(§4) [formula] • #HEP: Hundred percent effect controls. Containing substrate+enzyme+1 μM GC376. • ZPE: Zero percent effective controls. Containing enzyme+substrate, no compound. • Sample: Compound activity testing wells. Containing compound+enzyme+substrate. • BG: Compound background control wells. Containing compound+substrate, no enzyme.

Another experiment deals with SARS-COV2 Mpro (Severe acute respiratory syndrome coronavirus 2, UniProt P0DTD1). As to the kind of experiment: COVID-19 (nCoV-2019, SARS-CoV2) Mpro enzymatic assay. It counts as biochemical. The note with it: read-out: COVID-19 Mpro IC50. Here is the method:
Compounds were assayed using standard methods to assess compound activity and IC50. As an exemplary for assessment of the SARS-COV2 Mpro, the C-His6-tagged Mpro (NC_045512) was cloned, expressed in E. coli and purified. The assay buffer contained 20 mM of Tris-HCl (pH 7.3), 100 mM of NaCl, 1 mM of EDTA, 5 mM of TCEP and 0.1% BSA. The final concentrations of the Mpro protein and substrate were 25 nM and 25 μM, respectively, in the Mpro enzymatic assay.
The compounds were added to an assay plate. For 100% inhibition control (HPE, hundred percent effect), 1 μM GC376 was added.
as §3
[formula] • #HEP: Hundred percent effect controls. […] Containing enzyme+substrate, no compound. • Sample: Compound activity testing wells. Containing compound+enzyme+substrate. • BG: Compound background control wells. Containing compound+substrate, no enzyme.

Another experiment has as its target OC43 Mpro (Human coronavirus OC43, UniProt P0C6X6). As to the kind of experiment: OC43 Mpro enzymatic assay. It counts as biochemical, HCoV OC43. The protocol:
as §1, §2, §3, §4

Sequence of 229E Mpro (P0C6X1 2966-3267): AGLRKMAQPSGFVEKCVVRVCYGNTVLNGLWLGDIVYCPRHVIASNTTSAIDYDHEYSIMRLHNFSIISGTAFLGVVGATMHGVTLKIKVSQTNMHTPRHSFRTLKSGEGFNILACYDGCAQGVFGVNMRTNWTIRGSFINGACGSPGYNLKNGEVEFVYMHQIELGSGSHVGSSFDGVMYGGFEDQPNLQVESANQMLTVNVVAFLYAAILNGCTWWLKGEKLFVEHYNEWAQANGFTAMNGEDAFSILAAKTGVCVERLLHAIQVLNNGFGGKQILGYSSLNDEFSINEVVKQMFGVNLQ
Sequence of OC43 Mpro (P0C6X6 3247-3549): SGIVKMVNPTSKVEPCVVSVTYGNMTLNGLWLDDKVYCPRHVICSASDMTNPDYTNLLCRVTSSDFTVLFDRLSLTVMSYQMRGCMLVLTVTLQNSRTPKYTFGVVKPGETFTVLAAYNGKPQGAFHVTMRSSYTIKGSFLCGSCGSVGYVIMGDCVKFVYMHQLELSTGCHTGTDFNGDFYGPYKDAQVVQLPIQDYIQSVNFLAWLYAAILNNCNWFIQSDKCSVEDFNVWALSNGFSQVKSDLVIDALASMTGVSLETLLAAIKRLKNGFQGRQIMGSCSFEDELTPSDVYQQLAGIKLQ

For the compound `C[C@@H](OC1(C)CCC1)[C@H](NC(=O)C(F)(F)F)C(=O)N1C[C@H]2[C@@H]([C@H]1C(=O)N[C@H](C#N)C[C@@H]1CC3(CC3)NC1=O)C2(C)C` [Compound 314, (1R,2S,5S)—N-[(1S)-1-cyan-2-[(6R)-5-oxo-4-azaspiro[2.4]heptan-6-yl]ethyl]-6,6-dimethyl-3-[(2S,3R)-3-(1-methylcyclobutoxy)-2-[(2,2,2-trifluoroacetyl)amino]butanoyl]-3-azabicyclo[3.1.0]hexane-2-carboxamide], the IC50 at 229E Mpro (Table 5), at SARS-COV2 Mpro (Table 5) and at OC43 Mpro (Table 5) was less than 2000 nM in each case.
In the case of `C[C@@H](OC1(C2CC2)CC1)[C@H](NC(=O)C(F)(F)F)C(=O)N1C[C@H]2[C@@H]([C@H]1C(=O)N[C@H](C#N)C[C@@H]1CC(C)(C)NC1=O)C2(C)C` [Compound 324, (1R,2S,5S)—N-[(1S)-1-cyano-2-[(3R)-5,5-dimethyl-2-oxo-pyrrolidin-3-yl]ethyl]-3-[(2S,3R)-3-(1-cyclopropylcyclopropoxy)-2-[(2,2,2-trifluoroacetyl)amino]butanoyl]-6,6-dimethyl-3-azabicyclo[3.1.0]hexane-2-carboxamide], the IC50 on 229E Mpro (Table 3), at SARS-COV2 Mpro (Table 3) and at OC43 Mpro (Table 3) was less than 2000 nM throughout.
`CC1(C)C[C@@H](C[C@@H](C#N)NC(=O)[C@@H]2[C@@H]3[C@H](CN2C(=O)C2(NC(=O)C(F)(F)F)CCC2)C3(C)C)C(=O)N1` [Compound 316, (1R,2S,5S)—N-[(1S)-1-cyano-2-[(3R)-5,5-dimethyl-2-oxo-pyrrolidin-3-yl]ethyl]-6,6-dimethyl-3-[1-[(2,2,2-trifluoroacetyl)amino]cyclobutanecarbonyl]-3-azabicyclo[3.1.0]hexane-2-carboxamide]: the IC50 on 229E Mpro (Table 3) was greater than 30000 nM; at SARS-COV2 Mpro (Table 3), less than 2000 nM; on OC43 Mpro (Table 3) it was 10000 to 30000 nM.
As for `C[C@@H](OC1CC1)[C@H](NC(=O)C(F)(F)F)C(=O)N1C[C@H]2[C@@H]([C@H]1C(=O)N[C@H](C#N)C[C@@H]1CC3(CC3)NC1=O)C2(C)C` [Compound 326, (1R,2S,5S)—N-[(1S)-1-cyan-2-[(6R)-5-oxo-4-azaspiro[2.4]heptan-6-yl]ethyl]-3-[(2S,3R)-3-(cyclopropoxy)-2-[(2,2,2-trifluoroacetyl)amino]butanoyl]-6,6-dimethyl-3-azabicyclo[3.1.0]hexane-2-carboxamide], the IC50 against 229E Mpro (Table 5), on SARS-COV2 Mpro (Table 5) and on OC43 Mpro (Table 5) was less than 2000 nM each time.
Turning to `C[C@@H](OC1(C#N)CC1)[C@H](NC(=O)C(F)(F)F)C(=O)N1C[C@H]2[C@@H]([C@H]1C(=O)N[C@H](C#N)C[C@@H]1CC(C)(C)NC1=O)C2(C)C` [Compound 334, (1R,2S,5S)-3-[(2S,3R)-3-(1-cyanocyclopropoxy)-2-[(2,2,2-trifluoroacetyl)amino]butanoyl]-N-[(1S)-1-cyano-2-[(3R)-5,5-dimethyl-2-oxo-pyrrolidin-3-yl]ethyl]-6,6-dimethyl-3-azabicyclo[3.1.0]hexane-2-carboxamide], the IC50 on 229E Mpro (Table 5), on SARS-COV2 Mpro (Table 5) and at OC43 Mpro (Table 5) was less than 2000 nM each time.
In the case of `CC(C)(C)[C@H](NC(=O)C(F)(F)F)C(=O)N1C[C@H]2[C@@H]([C@H]1C(=O)N[C@H](C#N)C[C@@]1(C)CC3(CC3)NC1=O)C2(C)C` [Compound 375], the IC50 at 229E Mpro (Table 3), at SARS-COV2 Mpro (Table 3) and at OC43 Mpro (Table 3) was less than 2000 nM throughout.
Turning to `C[C@@H](OC(C)(C)C)[C@H](NC(=O)C(F)(F)F)C(=O)N1C[C@H]2[C@@H]([C@H]1C(=O)N[C@H](C#N)C[C@@H]1CC(C)(C)NC1=O)C2(C)C` [Compound 285, (1RSS)-3-[(2S,3R)-3-tert-butoxy-2-[(2,2,2-trifluoroacetyl)amino]butanoyl]-N-[(1S)-1-cyano-2-[(3R)-5,5-dimethyl-2-oxo-pyrrolidin-3-yl]ethyl]-6,6-dimethyl-3-azabicyclo[3.1.0]hexane-2-carboxamide], the IC50 against 229E Mpro (Table 3), on SARS-COV2 Mpro (Table 3) and on OC43 Mpro (Table 3) was less than 2000 nM in each case.
As for `CC(C)(C)[C@H](NC(=O)C(F)(F)F)C(=O)N1C[C@H]2[C@@H]([C@H]1C(=O)N[C@H](C#N)C[C@@H]1CC3(CCC3)NC1=O)C2(C)C` [Compound 362, (1R,2S,5S)—N-[(1S)-1-cyano-2-[(7R)-6-oxo-5-azaspiro[3.4]octan-7-yl]ethyl]-3-[(2S)-3,3-dimethyl-2-[(2,2,2-trifluoroacetyl)amino]butanoyl]-6,6-dimethyl-3-azabicyclo[3.1.0]hexane-2-carboxamide], the concentration for half-maximal inhibition (IC50) against 229E Mpro (Table 3), at SARS-COV2 Mpro (Table 3) and against OC43 Mpro (Table 3) was less than 2000 nM in each case.
Regarding `C[C@@H](OC1(C)CC1)[C@H](NC(=O)C(F)(F)F)C(=O)N1C[C@H]2[C@@H]([C@H]1C(=O)N[C@H](C#N)C[C@@H]1CC3(CC3)NC1=O)C2(C)C` [Compound 315, (1R,2S,5S)—N-[(1S)-1-cyan-2-[(6R)-5-oxo-4-azaspiro[2.4]heptan-6-yl]ethyl]-6,6-dimethyl-3-[(2S,3R)-3-(1-methylcyclopropoxy)-2-[(2,2,2-trifluoroacetyl)amino]butanoyl]-3-azabicyclo[3.1.0]hexane-2-carboxamide], the IC50 at 229E Mpro (Table 3), on SARS-COV2 Mpro (Table 3) and against OC43 Mpro (Table 3) was less than 2000 nM each time.
For the compound `C[C@@H](OC1CC1)[C@@H](NC(=O)C(F)(F)F)C(=O)N1C[C@H]2[C@@H]([C@H]1C(=O)N[C@H](C#N)C[C@@H]1CC(C)(C)NC1=O)C2(C)C` (single isomer, unassigned) [Compound 298a], the IC50 against 229E Mpro (Table 5), on SARS-COV2 Mpro (Table 5) and at OC43 Mpro (Table 5) was less than 2000 nM in each case.
With `CC(C)(C)[C@H](NC(=O)C1(CF)CC1(F)F)C(=O)N1C[C@H]2[C@@H]([C@H]1C(=O)N[C@H](C#N)C[C@@H]1CC3(CC3)NC1=O)C2(C)C` (single isomer, unassigned) [292 Isomer 1], the IC50 against 229E Mpro (Table 3), on SARS-COV2 Mpro (Table 3) and against OC43 Mpro (Table 3) was less than 2000 nM throughout.
Take `COC(C)(C)[C@H](NC(=O)C(F)(F)F)C(=O)N1C[C@H]2[C@@H]([C@H]1C(=O)N[C@H](C#N)C[C@@H]1CC3(CC3)NC1=O)C2(C)C` (single isomer, unassigned) [Compound 284]: the figures for the IC50 against 229E Mpro (Table 5), at SARS-COV2 Mpro (Table 5) and on OC43 Mpro (Table 5) were 10000 to 30000 nM, less than 2000 nM and less than 2000 nM, respectively.
In the case of `C[C@@H](OCC(F)(F)F)[C@H](NC(=O)C(F)(F)F)C(=O)N1C[C@H]2[C@@H]([C@H]1C(=O)N[C@H](C#N)C[C@@H]1CC(C)(C)NC1=O)C2(C)C` [Compound 312, (1R,2S,5S)—N-[(1S)-1-cyano-2-[(3R)-5,5-dimethyl-2-oxo-pyrrolidin-3-yl]ethyl]-6,6-dimethyl-3-[(2S,3R)-2-[(2,2,2-trifluoroacetyl)amino]-3-(2,2,2-trifluoroethoxy)butanoyl]-3-azabicyclo[3.1.0]hexane-2-carboxamide], the IC50 on 229E Mpro (Table 5), at SARS-COV2 Mpro (Table 5) and on OC43 Mpro (Table 5) was less than 2000 nM each time.
Regarding `C[C@@H](OC(C)(C)C)[C@H](NC(=O)C1(C(F)(F)F)CC1)C(=O)N1C[C@H]2[C@@H]([C@H]1C(=O)N[C@H](C#N)C[C@@H]1CC(C)(C)NC1=O)C2(C)C` [Compound 295, (1R,2S,5S)-3-[(2S,3R)-3-tert-butoxy-2-[[1-(trifluoromethyl)cyclopropanecarbonyl]amino]butanoyl]-N-[(1S)-1-cyano-2-[(3R)-5,5-dimethyl-2-oxo-pyrrolidin-3-yl]ethyl]-6,6-dimethyl-3-azabicyclo[3.1.0]hexane-2-carboxamide], the concentration for half-maximal inhibition (IC50) against 229E Mpro (Table 5), on SARS-COV2 Mpro (Table 5) and at OC43 Mpro (Table 5) was less than 2000 nM each time.
In the case of `C[C@@H](OC(C)(C)C(F)(F)F)[C@H](NC(=O)C(F)(F)F)C(=O)N1C[C@H]2[C@@H]([C@H]1C(=O)N[C@H](C#N)C[C@@H]1CC3(CC3)NC1=O)C2(C)C` [Compound 358, (1R,2S,5S)—N-[(1S)-1-cyan-2-[(6R)-5-oxo-4-azaspiro[2.4]heptan-6-yl]ethyl]-6,6-dimethyl-3-[(2S,3R)-2-[(2,2,2-trifluoroacetyl)amino]-3-(2,2,2-trifluoro-1,1-dimethyl-ethoxy)butanoyl]-3-azabicyclo[3.1.0]hexane-2-carboxamide], the IC50 against 229E Mpro (Table 5), at SARS-COV2 Mpro (Table 5) and against OC43 Mpro (Table 5) was less than 2000 nM in each case.
Turning to `CC(C)(C)[C@H](NC(=O)OC1CC(F)(F)C1(F)F)C(=O)N1C[C@H]2[C@@H]([C@H]1C(=O)N[C@H](C#N)C[C@@H]1CC3(CC3)NC1=O)C2(C)C` (single isomer, unassigned) [273 Isomer 2], the IC50 at 229E Mpro (Table 3), at SARS-COV2 Mpro (Table 3) and at OC43 Mpro (Table 3) was less than 2000 nM in each case.
